Measured values from publication PMC8144573, “Distinct EH domains of the endocytic TPLATE complex confer lipid and protein binding” (Nature Communications, 2021).

Key:
SCAMP5 = assay: ES9 treatment, SCAMP5 localization; format: cell-based, Arabidopsis; details: 10 µM ES9, 5 min pretreatment then 30 min co-treatment with 2 µM FM4-64
Description: For ES9 treatment plants were pretreated for 5 min with 10 µM ES9, a generous gift of the lab of Jenny Russinova (PSB, VIB/Ugent, BE), in 1/2 MS media followed by 30 min co-treatment of ES9 with 2 µM FM4-64.

EH1.1 = assay: Peptidome profiling by mass spectrometry, EH1.1; format: binding, Arabidopsis thaliana; design: scale not given here
Description: (§1) Arabidopsis (Col-0) was grown vertically on 1/2 MS media for 7 days on a nylon mesh, harvested and flash-frozen in liquid nitrogen. Frozen seedlings (3 g/experiment) were ground using mortar and pestle. Proteins were extracted and denatured in 50 mM NaHCO3, 8 M Urea and sonicated three times for 1 min. Protein extracts were rotated for 30 min at room temperature after which the extract was subsequently centrifuged twice at 20,000 × g for 20 min. DTT was added to the supernatant, was added to a final concentration of 5 mM and incubated at 55 °C for 30 min. Proteins were alkylated by the addition of 100 mM iodoacetamide and incubated for 15 min in the dark after which the mix was subsequently diluted with 50 mM NaHCO3 to a final concentration of 2 M urea. Trypsin was added in a ratio of 1:75, protein:trypsin (Sequencing Grade Modified Trypsin, V5117, Promega) and incubated overnight at 37 °C on a rotating wheel.
(§2) Trypsin was removed using Sep-Pak Vac 3cc columns (500 mg, WAT036815, Waters). The extract was acidified using 1% TFA for 15 min on ice and cleared by centrifugation at 1780 × g for 15 min at room temperature. The cleared extract was split into four and applied on an equilibrated Sep-Pak columns (Waters, WAT036815, Lot # 010437235B). The column was pre-wet using 5 ml of 100% MeCN followed by sequential washing with 1 ml, 3 ml, and 6 ml of 0.1% TFA. After application of the extract, the column was washed sequentially with 1 ml, 5 ml, and 6 ml of 0.1% TFA followed by a 2 ml wash with 0.1% TFA, 5% acetonitrile. The peptides were eluted using three times 2 ml 0.1% TFA, 40% acetonitrile. The eluate was lyophilized for two days to remove TFA. 200 µg EH domain or his-GFP were coupled, in triplicate, during one hour to 25 µl Ni Sepharose 6 Fast Flow beads (GE Healthcare, 17-5318-01). Unbound protein was removed by three washing steps of 1 ml each. The lyophilized peptides were solubilized in 20 mM HEPES, 150 mM NaCl buffer, 0.2 mM CaCl2, divided and added to the coupled beads. The peptidome was incubated with the proteins for 4 h after which the beads were washed three times with 1 ml of the binding buffer. Peptides were eluted by the addition of 80 µl 20 mM HEPES pH 8, 8 M Urea. The supernatant was removed from the beads and desalted with Monospin C18 columns (Agilent Technologies, A57003100) after which they were freeze dried.
(§3) Peptides were redissolved in 20 µl loading solvent A (0.1% TFA in water/acetonitrile (98:2, v/v)) of which 5 µl was injected for LC-MS/MS analysis on an Ultimate 3000 RSLC nano LC (Thermo Fisher Scientific, Bremen, Germany) in-line connected to a Q Exactive mass spectrometer (Thermo Fisher Scientific). The peptides were first loaded on a trapping column made in-house (100 μm internal diameter (I.D.) × 20 mm, 5 μm beads C18 Reprosil-HD, Dr. Maisch, Ammerbuch-Entringen, Germany) and after flushing from the trapping column the peptides were separated on a 50 cm µPAC™ column with C18-endcapped functionality (Pharmafluidics, Belgium) kept at a constant temperature of 35 °C. Peptides were eluted by a linear gradient from 98% solvent A′ (0.1% formic acid in water) to 55% solvent B′ (0.1% formic acid in water/acetonitrile, 20/80 (v/v)) in 30 min at a flow rate of 300 nl/min, followed by a 5 min wash reaching 99% solvent B’. The mass spectrometer was operated in data-dependent, positive ionization mode, automatically switching between MS and MS/MS acquisition for the 5 most abundant peaks in a given MS spectrum. The source voltage was 2.2 kV, and the capillary temperature was 250 °C. […]

EH1.2+EH1.1 = assay: Peptidome profiling by mass spectrometry, EH1.2+EH1.1 vs GFP; format: binding, Arabidopsis thaliana
Excerpt: Supplement 41467_2021_23314_MOESM6_ESM.xlsx, sheet "Supplementary Data 3" | column: EH1.2+EH1.1 vs GFP

EH1.2 = assay: Peptidome profiling by mass spectrometry, EH1.2; format: binding, Arabidopsis thaliana
Description: as §1, §2, §3

[1] = target: 15N-labeled EH1.1 of AtEH1/Pan1 (amino acids 1-107) for NMR titration (Arabidopsis thaliana); assay: NMR titration; 1H,15N HSQC of 15N-labeled EH domain with successive addition of unlabeled peptide up to 1:4 excess; 20 mM MES 6.5, 150 mM NaCl, 2 mM CaCl2; chemical shift perturbations fitted to a binding isotherm; apparent
[2] = target: 15N-labeled EH1.2 of AtEH1/Pan1 (amino acids 346-449) for NMR titration (Arabidopsis thaliana); assay: as above
[3] = target: First EH domain of AtEH1/Pan1 (EH1.1), amino acids 1-107, His-tagged (Arabidopsis thaliana); assay: BLI; Octet RED96; His-tagged EH domain on Ni-NTA biosensors, covalently coupled with EDC/NHS; peptide as analyte in increasing concentrations; 20 mM HEPES pH 7.4, 150 mM NaCl, 2 mM CaCl2; 25 °C; steady state, one-site total binding model
Sequence of First EH domain of AtEH1/Pan1 (EH1.1), amino acids 1-107, His-tagged (Arabidopsis thaliana) (main, as listed by the source): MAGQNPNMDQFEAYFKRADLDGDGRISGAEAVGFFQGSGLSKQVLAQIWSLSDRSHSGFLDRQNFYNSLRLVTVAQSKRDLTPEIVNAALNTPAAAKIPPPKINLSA

Sequence of 15N-labeled EH1.2 of AtEH1/Pan1 (amino acids 346-449) for NMR titration (Arabidopsis thaliana) (main, as listed by the source): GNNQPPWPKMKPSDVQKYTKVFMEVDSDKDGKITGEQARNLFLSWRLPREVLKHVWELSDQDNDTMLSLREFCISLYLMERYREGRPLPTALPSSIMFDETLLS

Row | Molecule | effect on SCAMP5 localization (in words) (SCAMP5) | Difference (EH1.1; EH1.1 vs EH1.2) | Difference (EH1.1; EH1.1 vs EH1.2+GFP) | Difference (EH1.1; EH1.1 vs GFP) | Difference (EH1.2+EH1.1) | Difference (EH1.2; EH1.2 vs EH1.1+GFP) | Difference (EH1.2; EH1.2 vs GFP) | Kd [1] [µM] | Kd [2] [µM] | Kd [3] [µM]
1 | O=[N+]([O-])c1ccc(NS(=O)(=O)c2ccc(Br)s2)cc1 [ES-9] | caused SCAMP5 accumulation at the PM | – | – | – | – | – | – | – | – | –
2 | DLTPEIVNAALNTPAAAK | – | 9.679 | 11.2082 | 12.7377 | 7.898 | -3.31 | 3.059 | – | – | –
3 | VFMEVDSDKDGKITGEQAR | – | -15.7597 | -8.131 | -0.5027 | 7.377 | 15.5083 | 15.257 | – | – | –
4 | YHASAIHVPGPEVAR | – | 0.9954 | 4.577 | 8.159 | 7.661 | 3.084 | 7.163 | – | – | –
5 | DPNPFDEDEEIVNPFSK (modifications not checked) | – | – | – | – | – | – | – | 33 | 190 | 59
